Where two headings read alike, the source gives them in different places.
Key:
SmSirt2 = SmSirt2 (Schistosoma mansoni, UniProt T1VXA1); experiment: In vitro SmSirt2 inhibition assay, homogeneous fluorescence-based, ZMAL substrate; assay type: biochemical; conditions: for IC50: read-out: IC50 SmSirt2, ZMAL substrate
Method: We first improved the synthetic method to obtain most of the BDFs analogues 1–12 (Figure ), and we tested them against recombinant SmSirt2 using a homogeneous, fluorescent-based in vitro assay with (Z)-(Ac)-Lys-7-amino-4-methylcoumarin (ZMAL) as the substrate.
The BDF4 compounds 1–12 were tested for their inhibitory activity against SmSirt2 using a fluorescence-based assay with ZMAL as the substrate. Their activity against hSirt2 has been previously reported. ,
For the screening of compounds 1–12, a homogeneous fluorescence-based assay previously described by some of us was used to determine SmSirt2 activity.

[1] = system: S. mansoni newly transformed schistosomula (NTS), Liberian strain; experiment: NTS (Liberian strain) in vitro viability assay; assay type: cell-based, Schistosoma mansoni; conditions: for percentage of reduction of NTS viability, 72 h: SD in brackets; for IC50: 72 h, Liberian strain
[2] = system: adult S. mansoni (Liberian strain) worm pairs; experiment: Adult worm (Liberian strain) in vitro viability assay; assay type: cell-based, Schistosoma mansoni; conditions: for adult worms' percentage of viability reduction, 72 h: SD in brackets; for IC50: Schistosoma mansoni, 72 h, Liberian strain
[3] = system: S. mansoni (Puerto Rican) worm pairs; experiment: Worm pairing of adult worm pairs (Puerto Rican strain); assay type: cell-based, Schistosoma mansoni; conditions: % of DMSO control
[4] = system: S. mansoni (Puerto Rican) worm pairs; experiment: Egg laying by adult worm pairs (Puerto Rican strain); assay type: cell-based, Schistosoma mansoni; conditions: % of DMSO control
[5] = system: adult S. mansoni (Puerto Rican strain) worm pairs; conditions: for reduction of viability of adult worm pairs: concentration not given, Puerto Rican strain; for viability of adult worm pairs after recovery: both, Puerto Rican, Schistosoma mansoni
hSirt2 = conditions: cited from earlier work
[6] = system: cytochrome c release in S. mansoni (Puerto Rican strain) worms; experiment: Western blot of cytosolic cytochrome c in worm extracts; assay type: cell-based, Schistosoma mansoni; conditions: 1 μM, 24 h (legend of Figure 5)
Method: To determine if the Sirt2 inhibitors trigger apoptosis through the cytochrome c pathway, we examined cytochrome c release from mitochondria.
5 Effects of selected Sirt2 inhibitors on cytosolic cytochrome c expression. Representative immunoblots of cytosolic protein fractions extracted from S. mansoni adult worm pairs are shown. The worms were treated with the indicated Sirt2 inhibitors (10 μM) for 48 h. DMSO (vehicle), TSA (1 μM, 24 h), a HDAC pan-inhibitor, and salermide (Sal 25 μM, 48 h), a Sirt1/Sirt2 inhibitor, were used as controls. The α-tubulin signal was used for normalization. Quantitation of cytochrome c relative to the vehicle-treated sample is shown.
Ten pairs of adult parasites were treated with selected Sirt inhibitors for either 24 or 48 h at partially lethal and sublethal concentrations. The concentrations of compounds were chosen based on the viability curve. Positive controls in the experiments included TSA, a pan-HDAC inhibitor, and salermide, a hSirt1/2 inhibitor, while DMSO (vehicle) served as negative control. Parasites were lysed in a 0.5% Triton PBS buffer by strokes, and the lysates were then centrifuged to collect the soluble fractions (cytosol). The insoluble fractions were extracted with 0.25 N HCl at +4 °C for 18 h, followed by neutralization with 1/10 volume of 2 N NaOH. Samples were analyzed using 15% SDS-PAGE and Western blotting. […]

[7] = ref footnote b (reference number not given)

SmSirt2, sequence (T1VXA1 entry or part of it): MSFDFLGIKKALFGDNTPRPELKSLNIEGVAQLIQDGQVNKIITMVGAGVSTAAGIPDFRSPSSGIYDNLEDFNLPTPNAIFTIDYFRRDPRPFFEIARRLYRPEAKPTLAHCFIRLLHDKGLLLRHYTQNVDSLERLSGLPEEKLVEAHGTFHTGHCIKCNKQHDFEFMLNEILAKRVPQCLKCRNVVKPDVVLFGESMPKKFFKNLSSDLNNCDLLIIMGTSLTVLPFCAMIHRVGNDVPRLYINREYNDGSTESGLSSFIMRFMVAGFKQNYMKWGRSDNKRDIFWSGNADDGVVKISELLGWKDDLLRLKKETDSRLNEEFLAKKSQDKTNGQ

SMILES: O=c1nc2oc3ccc4ccccc4c3cc-2c(=O)[nH]1 [Compound 1, 7-Oxa-8,10-Diazabenzo[a]anthracene-9,11-dione]
- selectivity toward SmSIRT2 over the human isoform (SmSirt2; SmSirt2 vs hSirt2): selectively active against the parasite enzyme
- IC50 (SmSirt2): 3.8 ± 0.3 µM
- percentage of reduction of NTS viability, 72 h ([1]; 0.1 μM): 16.7 (0) %
- percentage of reduction of NTS viability, 72 h ([1]; 1 μM): 90 (1.7) %
- percentage of reduction of NTS viability, 72 h ([1]; 10 μM): 100 (0) %
- percentage of reduction of NTS viability, 72 h ([1]; 20 μM): 100 (0) %
- IC50 [1]: 0.25 µM
- IC50 ([1]; Schistosoma mansoni): ~0.2 µM
- adult worms' percentage of viability reduction, 72 h ([2]; 10 μM): 27.5 (2) %
- adult worms' percentage of viability reduction, 72 h ([2]; 20 μM): 85.7 (7.2) %
- IC50 [2]: > 10 µM
- % worm pairing ([3]; 1 μM, 24 h, single experiment): 100%
- % worm pairing ([3]; 1 μM, 48 h, single experiment): 100%
- % worm pairing ([3]; 1 μM, 72 h, single experiment): 100%
- % worm pairing ([3]; 10 μM, 24 h, SD in brackets): 100 (0) %
- % worm pairing ([3]; 10 μM, 48 h, SD in brackets): 100 (0) %
- % worm pairing ([3]; 10 μM, 72 h, SD in brackets): 100 (0) %
- % worm pairing ([3]; 20 μM, 24 h, SD in brackets): 100 (0) %
- % worm pairing ([3]; 20 μM, 48 h, SD in brackets): 100 (0) %
- % worm pairing ([3]; 20 μM, 72 h, SD in brackets): 100 (0) %
- % egg laying ([4]; 1 μM, 24 h, single experiment): 79%
- % egg laying ([4]; 1 μM, 48 h, single experiment): 90%
- % egg laying ([4]; 1 μM, 72 h, single experiment): 116%
- % egg laying ([4]; 10 μM, 24 h, SD in brackets): 93 (27) %
- % egg laying ([4]; 10 μM, 48 h, SD in brackets): 97 (14) %
- % egg laying ([4]; 10 μM, 72 h, SD in brackets): 122 (14) %
- % egg laying ([4]; 20 μM, 24 h, SD in brackets): 56 (22) %
- % egg laying ([4]; 20 μM, 48 h, SD in brackets): 75 (19) %
- % egg laying ([4]; 20 μM, 72 h, SD in brackets): 109 (47) %
- reduction of viability of adult worm pairs ([5]; 72 h): 20%
- IC50 (hSirt2; ref footnote a (reference number not given)): > 50 µM

SMILES: Cn1c(=O)nc2oc3ccc4ccccc4c3cc-2c1=O [Compound 2, 10-Methyl-9H-benzo[5,6]chromeno[2,3-d]pyrimidine-9,11(10H)-dione]
- IC50 (SmSirt2): 2.3 ± 0.1 µM
- percentage of reduction of NTS viability, 72 h ([1]; 0.1 μM): 20.8 (0) %
- percentage of reduction of NTS viability, 72 h ([1]; 1 μM): 43.8 (2.1) %
- percentage of reduction of NTS viability, 72 h ([1]; 10 μM): 61.5 (3.8) %
- percentage of reduction of NTS viability, 72 h ([1]; 20 μM): 85.7 (3.6) %
- IC50 ([1]; Schistosoma mansoni): 1.5 µM
- adult worms' percentage of viability reduction, 72 h ([2]; 10 μM): 37.3 (3.9) %
- adult worms' percentage of viability reduction, 72 h ([2]; 20 μM): 82.1 (3.6) %
- IC50 [2]: > 10 µM
- IC50 (hSirt2; [7]): 11.2 ± 0.3 µM

SMILES: CCn1c(=O)nc2oc3ccc4ccccc4c3cc-2c1=O [Compound 3, 10-Ethyl-9H-benzo[5,6]chromeno[2,3-d]pyrimidine-9,11(10H)-dione]
- IC50 (SmSirt2): 12.6 ± 2.2 µM
- percentage of reduction of NTS viability, 72 h ([1]; 1 μM): 40 (0) %
- percentage of reduction of NTS viability, 72 h ([1]; 10 μM): 100 (0) %
- percentage of reduction of NTS viability, 72 h ([1]; 20 μM): 100 (0) %
- IC50 ([1]; Schistosoma mansoni): 1.03 µM
- adult worms' percentage of viability reduction, 72 h ([2]; 10 μM): 49 (0) %
- adult worms' percentage of viability reduction, 72 h ([2]; 20 μM): 80.3 (5.4) %
- IC50 [2]: > 10 µM
- IC50 (hSirt2; [7]): 30 ± 1.2 µM

SMILES: C=CCn1c(=O)nc2oc3ccc4ccccc4c3cc-2c1=O [Compound 4, 10-Allyl-9H-benzo[5,6]chromeno[2,3-d]pyrimidine-9,11(10H)-dione]
- inhibition at 50 µM (SmSirt2): 53.9%
- percentage of reduction of NTS viability, 72 h ([1]; 0.1 μM): 20 (0) %
- percentage of reduction of NTS viability, 72 h ([1]; 1 μM): 100 (0) %
- percentage of reduction of NTS viability, 72 h ([1]; 10 μM): 100 (0) %
- percentage of reduction of NTS viability, 72 h ([1]; 20 μM): 100 (0) %
- IC50 [1]: 0.12 µM
- IC50 ([1]; Schistosoma mansoni): ~0.1 µM
- adult worms' percentage of viability reduction, 72 h ([2]; 1 μM): 40.7 (3.7) %
- adult worms' percentage of viability reduction, 72 h ([2]; 20 μM): 94.4 (0) %
- IC50 [2]: 2.03 µM
- % worm pairing ([3]; 1 μM, 24 h, single experiment): 100%
- % worm pairing ([3]; 1 μM, 48 h, single experiment): 100%
- % worm pairing ([3]; 1 μM, 72 h, single experiment): 100%
- % worm pairing ([3]; 10 μM, 24 h, SD in brackets): 90 (14) %
- % worm pairing ([3]; 10 μM, 48 h, SD in brackets): 90 (14) %
- % worm pairing ([3]; 10 μM, 72 h, SD in brackets): 90 (14) %
- % worm pairing ([3]; 20 μM, 24 h, SD in brackets): 0 (0) %
- % worm pairing ([3]; 20 μM, 48 h, SD in brackets): 20 (0) %
- % worm pairing ([3]; 20 μM, 72 h, SD in brackets): 60 (0) %
- % egg laying ([4]; 1 μM, 24 h, single experiment): 72%
- % egg laying ([4]; 1 μM, 48 h, single experiment): 68%
- % egg laying ([4]; 1 μM, 72 h, single experiment): 95%
- % egg laying ([4]; 10 μM, 24 h, SD in brackets): 61(6) %
- % egg laying ([4]; 10 μM, 48 h, SD in brackets): 82 (12) %
- % egg laying ([4]; 10 μM, 72 h, SD in brackets): 79 (19) %
- % egg laying ([4]; 20 μM, 24 h, SD in brackets): 11 (6) %
- % egg laying ([4]; 20 μM, 48 h, SD in brackets): 7 (5) %
- reduction of viability of adult worm pairs ([5]; 24 h): approximately 80%
- viability of adult worm pairs after recovery ([5]; 72 h): 50%
- IC50 (hSirt2; [7]): 10.8 ± 0.3 µM

SMILES: CCCn1c(=O)nc2oc3ccc4ccccc4c3cc-2c1=O [Compound 5, 10-Propyl-9H-benzo[5,6]chromeno[2,3-d]pyrimidine-9,11(10H)-dione]
- IC50 (SmSirt2): 8 ± 0.7 µM
- percentage of reduction of NTS viability, 72 h ([1]; 0.1 μM): 24 (0) %
- percentage of reduction of NTS viability, 72 h ([1]; 1 μM): 100 (0) %
- percentage of reduction of NTS viability, 72 h ([1]; 10 μM): 100 (0) %
- percentage of reduction of NTS viability, 72 h ([1]; 20 μM): 100 (0) %
- IC50 [1]: 0.12 µM
- IC50 ([1]; Schistosoma mansoni): ~0.1 µM
- adult worms' percentage of viability reduction, 72 h ([2]; 1 μM): 25.9 (3.7) %
- adult worms' percentage of viability reduction, 72 h ([2]; 20 μM): 91.7 (2.8) %
- IC50 [2]: 3.35 µM
- % worm pairing ([3]; 1 μM, 24 h, single experiment): 100%
- % worm pairing ([3]; 1 μM, 48 h, single experiment): 100%
- % worm pairing ([3]; 1 μM, 72 h, single experiment): 100%
- % worm pairing ([3]; 10 μM, 24 h, SD in brackets): 90 (14) %
- % worm pairing ([3]; 10 μM, 48 h, SD in brackets): 100 (14) %
- % worm pairing ([3]; 10 μM, 72 h, SD in brackets): 100 (14) %
- % worm pairing ([3]; 20 μM, 24 h, SD in brackets): 0 (0) %
- % worm pairing ([3]; 20 μM, 48 h, SD in brackets): 10 (14) %
- % worm pairing ([3]; 20 μM, 72 h, SD in brackets): 0 (0) %
- % egg laying ([4]; 1 μM, 24 h, single experiment): 104%
- % egg laying ([4]; 1 μM, 48 h, single experiment): 94%
- % egg laying ([4]; 1 μM, 72 h, single experiment): 144%
- % egg laying ([4]; 10 μM, 24 h, SD in brackets): 55 (15) %
- % egg laying ([4]; 10 μM, 48 h, SD in brackets): 73 (33) %
- % egg laying ([4]; 10 μM, 72 h, SD in brackets): 75 (7) %
- % egg laying ([4]; 20 μM, 24 h, SD in brackets): 12 (16) %
- % egg laying ([4]; 20 μM, 48 h, SD in brackets): 11 (14) %
- % egg laying ([4]; 20 μM, 72 h, SD in brackets): 13 (10) %
- reduction of viability of adult worm pairs ([5]; 24 h): approximately 80%
- viability of adult worm pairs after recovery ([5]; 72 h): 40%
- IC50 (hSirt2; [7]): 12.5 ± 0.5 µM

SMILES: CCCCn1c(=O)nc2oc3ccc4ccccc4c3cc-2c1=O [Compound 6, 10-Butyl-9H-benzo[5,6]chromeno[2,3-d]pyrimidine-9,11(10H)-dione]
- IC50 (SmSirt2): 7.8 ± 0.8 µM
- percentage of reduction of NTS viability, 72 h ([1]; 20 μM): 34 (1) %
- IC50 (hSirt2; [7]): 16.9 ± 0.8 µM

SMILES: O=C1NC(=O)N(c2ccccc2)C(=O)/C1=C/c1c(O)ccc2ccccc12 [Compound 10]
- inhibition at 50 µM (SmSirt2): 3.5%
- inhibition of SmSirt2 in words (SmSirt2): failed to inhibit
- % inhibition at 50 μM hSirt2 (hSirt2; 50 μM, ref footnote a (reference number not given)): 0.7% ^a
- inhibition of hSirt2 in words (hSirt2; ref not printed (previously reported)): failed to inhibit

SMILES: CC(/C=C/C(=O)NO)=C\[C@@H](C)C(=O)c1ccc(N(C)C)cc1 [TSA]
- cytosolic cytochrome c level [6]: increased levels of cytochrome c
